Results: paper PMC12040169 (PLOS Biology, 2025)

Assay: in vitro
Conditions: human, hela cells, % viability

SMILES	viability at 28.5 h, 10 µM [%]
CN1CCC(N2CCN(C(=O)c3ccc(-c4cccc(C(F)(F)F)c4)o3)CC2)CC1 [CBK149085]	91.2
Cc1onc(-c2ccc(Cl)cc2)c1C(=O)N1CCN(C2CCN(C)CC2)CC1 [CBK149087]	97.1
CN1CCC(N2CCN(C(=O)c3cnc(-c4ccccn4)nc3C(F)(F)F)CC2)CC1 [CBK149089]	107
CN1CCC(N2CCN(C(=O)c3ccccc3Nc3cccc(C(F)(F)F)c3)CC2)CC1 [CBK149097]	88.7
CN1CCC(N2CCN(C(=O)c3ccc4nc[nH]c4c3)CC2)CC1 [CBK149099]	94.7
O=c1cc(CN2CCC[C@@H]2CN2CCCC2)[nH]c(=O)[nH]1 [CBK149108]	92.2
O=C1NC(=O)C(CCCCN2CCC[C@@H]2CN2CCCC2)N1 (stereo partly shown) [CBK149110]	93.4
COc1cc(CN2CCC(C(=O)c3ccc(F)cc3)CC2)cc(OC)c1OC [CBK149112]	99.5
O=C(c1ccc(F)cc1)C1CCN(Cc2ccc(Cl)c(Cl)c2)CC1 [CBK149114]	98.5
NC(=O)CN1CCC(C(=O)c2ccc(F)cc2)CC1 [CBK149130]	96.6
O=C(c1ccc(F)cc1)C1CCN(Cc2ncc[nH]2)CC1 [CBK149135]	90.1
COc1ccc(OCCN2CCC(C(=O)c3ccc(F)cc3)CC2)cc1 [CBK149136]	104
O=C(CN1CCC(C(=O)c2ccc(F)cc2)CC1)c1ccsc1 [CBK149137]	95.5
CSCCN1CCC(C(=O)c2ccc(F)cc2)CC1 [CBK149145]	89.4
Nc1ncc(-c2ccc(C(=O)N3CCOCC3)cc2)nc1C(=O)Nc1ccccc1 [CBK149153]	85.7
Nc1ncc(-c2ccc(C(=O)N3CCOCC3)cc2)nc1C(=O)NC1CCCC1 [CBK149155]	89.3
Nc1ncc(-c2ccc(C(=O)N3CCOCC3)cc2)nc1C(=O)NCc1ccc(O)cc1 [CBK149161]	109
Cc1ccc(-c2oncc2C(=O)N2CCC(n3c(=O)[nH]c4ccccc43)CC2)cc1 [CBK149180]	106
CC(=O)Nc1ccc(-c2ccc(COC3CCN(C(=O)c4ccc(Cl)c(Cl)c4)CC3)cc2)cc1 [CBK149215]	89.3
CC(=O)Nc1ccc(-c2ccc(COC3CCN(C(=O)c4ccc(F)cc4F)CC3)cc2)cc1 [CBK149216]	101
CC(=O)Nc1ccc(-c2ccc(COC3CCN(C(=O)Cc4ccc(Cl)cc4)CC3)cc2)cc1 [CBK149218]	94.6
CC(=O)Nc1ccc(-c2ccc(COC3CCN(C(=O)Cc4ccc(C#N)cc4)CC3)cc2)cc1 [CBK149225]	91.7

SMILES	viability at 28.5 h, 10 µM [%]
COC(=O)c1ccc(-c2cc3ccccc3o2)nc1 [CBK149228T]	85.9
COC(=O)c1ccc(-c2ccsc2)nc1 [CBK149229]	116
CCc1ccc(-c2ccc(C(=O)OC)cn2)cc1 [CBK149232]	95.2
CCOC(=O)c1cccnc1-c1cc2ccccc2o1 [CBK149237]	99.7
CCOC(=O)c1cccnc1-c1ccc2[nH]ccc2c1 [CBK149238]	99.7
CCOC(=O)c1cccnc1-c1ccc(OC)c(OC)c1 [CBK149240]	94.2
CCOC(=O)c1cccc(-c2ccsc2)n1 [CBK149244]	97.6
CCOC(=O)c1cccc(-c2ccc(OC)c(OC)c2)n1 [CBK149247]	95.4
CCOC(=O)c1ccnc(-c2cc3ccccc3o2)c1 [CBK149253]	101
CC(C)(C)c1nc(-c2ccccc2)c2ccccn12 [CBK149256]	101
COc1ccc2[nH]cc(CC(=O)Nc3nc4c(OC)cccc4s3)c2c1 [CBK149279]	97.8
O=C(CC1CC1)NCc1ccc(-c2csnn2)cc1 [CBK149287]	92.8
O=C(NCc1ccc(-c2csnn2)cc1)c1ccco1 [CBK149289]	89
O=C(/C=C/c1ccc2c(c1)OCO2)NCc1ccc(-c2csnn2)cc1 [CBK149297]	88.1
O=C(NCc1ccc(-c2csnn2)cc1)c1ccc(Oc2ccccc2)cc1 [CBK149300]	108
O=C1CC(C(=O)NCc2ccc(-c3csnn3)cc2)c2ccccc21 (stereo not shown) [CBK149301]	93.1
COc1ccccc1OCC(=O)NCc1ccc(-c2csnn2)cc1 [CBK149303]	99.5
O=C(NCc1ccc(-c2csnn2)cc1)c1cccnc1 [CBK149309]	87
O=C(NCc1ccc(-c2csnn2)cc1)c1c(F)cccc1F [CBK149310]	86
O=C(COc1ccc(F)cc1)NCc1ccc(-c2csnn2)cc1 [CBK149315]	98.3
COc1cc(C(=O)N2CCC3(CC2)NC(=O)c2cc(Br)ccc2O3)ccc1C [CBK149464]	92.3
COc1cc(C(=O)N2CCC3(CC2)CC(=O)c2cc(Br)ccc2O3)ccc1C [CBK149465]	110

SMILES	viability at 28.5 h, 10 µM [%]
CS(=O)(=O)c1ccc(-n2cc(CN3CCC(Sc4ccccc4)CC3)nn2)cc1 [CBK149468]	101
CC(C)(C)OC(=O)N1CCC(OCc2cn(-c3ccc(-n4cncn4)cc3)nn2)CC1 [CBK149477]	87.1
CC(C)(C)OC(=O)N1CCC(OCc2cn(-c3ccc(S(C)(=O)=O)cc3)nn2)CC1 [CBK149478]	98.1
CC(=O)Nc1ccc(-c2cccc(COC3CCN(C(=O)Cc4cc(F)cc(F)c4F)CC3)c2)cc1 [CBK149489]	89.2
CC(=O)Nc1ccc(-c2cccc(COC3CCN(C(=O)Cc4ccc(C#N)cc4)CC3)c2)cc1 [CBK149495]	101
CS(=O)(=O)c1ccc(-c2cccc(COC3CCN(C(=O)Cc4ccc(Cl)cc4)CC3)c2)cc1 [CBK149504]	110
CS(=O)(=O)c1ccc(-c2cccc(COC3CCN(C(=O)Cc4c[nH]cn4)CC3)c2)cc1 [CBK149515]	90.9
CN1CCN(CCCNC(=O)C2(c3ccccc3)CCCC2)CC1 [CBK149521]	106
O=C(NCC1COc2ccccc2O1)C1(c2ccccc2)CCCC1 (stereo not shown) [CBK149524]	93.8
CSCCCNC(=O)C1(c2ccccc2)CCCC1 [CBK149526]	109
O=C(NCc1ccc(Cl)c(Cl)c1)C1(c2ccccc2)CCCC1 [CBK149528]	92.8
O=C(NCc1ccc2c(c1)OCO2)C1(c2ccccc2)CCCC1 [CBK149530]	89.8
Cc1cnc(CNC(=O)C2(c3ccccc3)CCCC2)cn1 [CBK149531]	101
O=C(NCc1cccc2ccccc12)C1(c2ccccc2)CCCC1 [CBK149534]	96.6
O=C(NCCc1ccc(O)cc1)C1(c2ccccc2)CCCC1 [CBK149535]	84.9
O=C(NCCN1CCOCC1)C1(c2ccccc2)CCCC1 [CBK149538]	95.2
O=C(NCc1ccccc1)C1(c2ccccc2)CCCC1 [CBK149540]	111
CC(O)CNC(=O)C1(c2ccccc2)CCCC1 (stereo not shown) [CBK149542]	96
CCOC(=O)CCNC(=O)C1(c2ccccc2)CCCC1 [CBK149543]	88.2
Cc1cc(Cl)ccc1CNC(=O)c1ccccc1Nc1cccc(C(F)(F)F)c1 [CBK149544]	97.3
CSCCCNC(=O)c1ccccc1Nc1cccc(C(F)(F)F)c1 [CBK149551]	71.3
NS(=O)(=O)c1ccc(CNC(=O)c2ccccc2Nc2cccc(C(F)(F)F)c2)cc1 [CBK149579]	94.4

SMILES	viability at 28.5 h, 10 µM [%]
O=C(Nc1ccc2[nH]ccc2c1)c1ccccc1Nc1cccc(C(F)(F)F)c1 [CBK149583]	105
O=C(NCc1cccs1)c1ccccc1-n1cccc1 [CBK149584]	92
O=C(NCc1cccc2ccccc12)c1ccccc1-n1cccc1 [CBK149585]	99.8
O=C(NCc1cccc(C(F)(F)F)c1)c1ccccc1-n1cccc1 [CBK149598]	100
CS(=O)(=O)c1ccc(CNC(=O)c2ccccc2-n2cccc2)cc1 [CBK149612]	94.2
Cc1cc(Cl)ccc1CNC(=O)/C=C/c1ccc(C(C)C)cc1 [CBK149615]	85.2
CC(C)c1ccc(/C=C/C(=O)NCC2COc3ccccc3O2)cc1 (stereo not shown) [CBK149619]	120
CC(C)c1ccc(/C=C/C(=O)NCCN2CCOCC2)cc1 [CBK149631]	92.6
CC(C)c1ccc(/C=C/C(=O)NCc2ccc(C#N)cc2)cc1 [CBK149642]	91
CC(C)c1ccc(/C=C/C(=O)N[C@H]2CC[C@H](O)CC2)cc1 [CBK149644]	106
CC(C)c1ccc(/C=C/C(=O)NCCC(N)=O)cc1 [CBK149646]	81.9
CC(C)S(=O)(=O)N1CCC(n2c(=O)[nH]c3ccccc32)CC1 [CBK149693]	101
CC(=O)Nc1ccc(S(=O)(=O)N2CCC(n3c(=O)[nH]c4ccccc43)CC2)cc1 [CBK149696]	92.3
Cc1cc(C(=O)N2CCC(n3c(=O)[nH]c4ccccc43)CC2)no1 [CBK149714]	103
CCc1c(C)nc2ccccc2c1SCCC(=O)N(C)C [CBK149718T]	99.9
CC1CCN(Cc2ccc(-c3nnn(CC(=O)NCc4ccc(C(F)(F)F)nc4)n3)cc2)CC1 [CBK149721T]	112
CC1CCN(Cc2ccc(-c3nnn(CC(=O)NCc4ccc(C(F)(F)F)cn4)n3)cc2)CC1 [CBK149722T]	104
CNc1ccc2cccc(OCCO)c2n1 [CBK149727]	95.6
O=c1ccc2cccc(OCCO)c2o1 [CBK149730]	105
CN(C)C(=O)c1ccc(-c2ccc3c(c2)COC(C2CCN(C(=O)Cc4ccc(C#N)cc4)CC2)O3)cc1 (stereo not shown) [CBK149760]	107
CN(C)C(=O)c1ccc(-c2ccc3c(c2)COC(C2CCN(C(=O)CC(C)(C)c4ccccc4)CC2)O3)cc1 (stereo not shown) [CBK149765]	107

Same assay, conditions: human, hela cells, % viability, bulk resorufin, single well

SMILES	viability at 28.5 h, 10 µM [%]
Cc1ccc(-c2oncc2C(=O)N2CCC(C#N)(c3ccccc3)CC2)cc1 [CBK149179]	95.7
